According to patent US11339193B2, “CDP protein secretion inhibitors” (KEZAR LIFE SCIENCES, priority 2018, dated 2022):
Numbered stars: 1 amine (or outer) side, 2 acyl side, 3 side chain; on linkers, the order of the positions; unused ones are H or OH. Square brackets hold non-standard residues; d marks the D form. Peptide text beside a SMILES is read from it. NMeTrp(1-(4-Br-benzyl)) = CN[C@@H](Cc1cn(Cc2ccc(Br)cc2)c2ccccc12)C(=O)O; Butanoyl(2R-oxy,4-CN) = N#CCC[C@@H](O)C(=O)O; NMe3Pal(5-F) = CN[C@@H](Cc1cncc(F)c1)C(=O)O; X22 = CCCC[C@@H](C)C[C@H](N[*:1])C(=O)[*:2]; Nva(5,5,5-F3) = N[C@@H](CCC(F)(F)F)C(=O)O; Abu(4,4,4-F3) = N[C@@H](CC(F)(F)F)C(=O)O; NMeL = CN[C@@H](CC(C)C)C(=O)O; NMeA = CN[C@@H](C)C(=O)O

Columns and labels:
Format in all cases: cell-based
[1] = test system: PD1-ss+10aa/Gaussia Luciferase; experiment: Dox induced PD1-ss-Gluc assay; conditions: Flp-In 293 T-REx cells, doxycycline, 24 hours; read-out: PD1ss Gluc IC50
How it was run: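 Stable Flp-In 293 T-REx line expressing doxycycline-inducible Gaussia luciferase fused to the PD1 signal sequence plus 10 amino acids. Cells plated the day before, then exposed to compound dilutions in DMSO/media containing doxycycline at 37 °C, 5% CO2.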

[2] = test system: TNFα-FL/Gaussia Luciferase; experiment: Dox induced TNFα-FL-Gluc assay; conditions: Flp-In 293 T-REx cells, doxycycline, 24 hours; read-out: TNFa FL Gluc IC50
How it was run: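 Stable Flp-In 293 T-REx line expressing full-length TNFα (aa 1-233) fused at its C-terminus to Gaussia luciferase under doxycycline-inducible control. Cells plated the day before, then given compound dilutions in DMSO/media containing doxycycline and incubated at 37 °C, 5% CO2.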

[3] = test system: NCI-H929 multiple myeloma cell line; experiment: H929 assay (cell viability, Celltiter-Glo); conditions: Homo sapiens, NCI-H929; 48 hours, cell viability; read-out: H929 EC50
How it was run: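 Cells plated in RPMI 1640 with 10% FBS and 2 mM glutamine, treated with compound dilutions in DMSO/media. Incubation 48 h at 37° C, 5% CO2. Viability from luciferase luminescence signal.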

[4] = test system: Prl-ss+10aa/Gaussia Luciferase; experiment: Prl-ss-Gluc assay (constitutively active or 24 hr Dox inducible); conditions: Flp-In 293 T-REx cells, 24 hours; read-out: Prl IC50
How it was run: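 Stable Flp-In 293 T-REx lines express Prl signal sequence+10aa fused to Gaussia luciferase, either constitutively (pcDNA5/FRT) or under the T-REx promoter (pcDNA5/FRT/TO). Cells plated the day before; compounds in DMSO/media (with doxycycline for the inducible line, 24 h) incubated at 37 °C, 5% CO2.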

[5] = test system: VCAMss+10aa/Gaussia Luciferase; experiment: VCAM-ss-Gluc assay (constitutively active or Dox induced); conditions: Flp-In 293 T-REx cells, 24 hours
Method: Assays Constitutively Active VCAM-ss-Gluc Assay
Transfected cells were selected for resistance to the selectable markers Hygromycin and Blasticidin to create a stable cell line that constitutively expressed the VCAMss+ 10aa/Gaussia Luciferase fusion protein. The day before assay, cells were trypsinized and plated in 384-well tissue culture plates. The next day, culture media was removed from the wells and replaced with fresh media. Compound dilutions in DMSO/media were added to the wells and incubated at 37° C., 5% CO2.
Dox Induced VCAM-ss-Gluc Assay
Transfected cells were selected for resistance to the selectable markers Hygromycin and Blasticidin to create a stable cell line that contained the VCAMss+10aa/Gaussia Luciferase cDNA insert whose expression was regulated under the T-REx™ system. The day before assay, cells were trypsinized and plated in 384-well tissue culture plates. The next day, compound dilutions in DMSO/media containing doxycycline were added to the wells and incubated at 37° C., 5% CO2.

[6] = test system: U266B1 multiple myeloma cell line; experiment: U266 assay (cell viability, Celltiter-Glo); conditions: Homo sapiens, U-266; 48 hours, cell viability
Method: Cells were plated in 384-well tissue culture plates and treated with compound dilutions in DMSO/media. Plates were incubated at 37° C., 5% CO2 for 48 hours. After 48 hours, Celltiter-Glo@ (Promega) was added to each well and luciferase signal was quantified using Tecan Infinite M1000 Pro for cell viability determination.

HER3ss-Gluc = experiment: HER3ss assay; conditions: HEK-293T T-rex cells, transient transfection, doxycycline, 24 h; read-out: HER3 ss IC50
How it was run: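 HEK-293T T-REx cells were transiently transfected with HER3 signal sequence (plus four mature-domain residues) fused upstream of mature Gaussia luciferase. Cells were induced with doxycycline (1 μg/ml) and exposed to increasing compound concentrations for 24 h, then secreted luciferase in the conditioned medium was read by luminescence.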

[7] = test system: BT474 breast tumor cell line; experiment: BT474 assay (Alamar blue); conditions: Homo sapiens, BT-474, 72 h
Method: (§1) BT474 is a human breast tumor cell line. JJN3 is a human plasma cell leukemia cell line. […] Cells were seeded at 100 000 cells/mL. Aliquots of 5000 cells (50 μL) were added to each well in black, clear bottom 96-well plates. Compounds or control (50 uL of 1% DMSO in cell culture medium) were added to the cells to the indicated final concentrations and cells were incubated for 72 h (unless otherwise specified). After incubation was complete, Alamar blue (10 uL of a 1 mg/mL solution) was added to each well and plates were incubated for 5 h. Fluorescence was then measured (excitation 545 nm, emission 590 nm) and is reported as […] normalized to DMSO control.

[8] = test system: JJN3 plasma cell leukemia cell line; experiment: JJN-3 assay (Alamar blue); conditions: Homo sapiens, 72 h
Method: as §1

IC50 [1]	IC50 [2]	EC50 [3]	IC50 [4]	IC50 [5]	EC50 [6]	IC50 (HER3ss-Gluc)	EC50 [7]	EC50 [8]	Structure (SMILES)
86 nM	131 nM	1480 nM	1660 nM	22 nM	5540 nM				CCCC[C@@H](C)C[C@@H]1NC(=O)[C@H](Cc2cncc(F)c2)N(C)C(=O)[C@H](CC(C)C)NC(=O)[C@H](CC(C)C)N(C)C(=O)[C@H](C[C@H](C)CCCC)NC(=O)[C@@H](CCC#N)OC(=O)[C@H](C)N(C)C1=O [C-24] (cyclo(L[NMe3Pal(5-F)][X22][NMeA][Butanoyl(2R-oxy,4-CN)][X22][NMeL]))
1050 nM		6540 nM		274 nM		963 nM			CC(C)C[C@@H]1NC(=O)[C@H](Cc2ccccc2)N(C)C(=O)[C@H](CC(C)C)NC(=O)[C@H](CC(C)C)N(C)C(=O)[C@H](CC(C)C)NC(=O)[C@@H](C)OC(=O)[C@H](C)N(C)C1=O [C-34] (HELM PEPTIDE1{L.[meA].[C[C@@H](O[*:1])C(=O)[*:2]].L.[meL].L.[meF]}$PEPTIDE1,PEPTIDE1,1:R1-7:R2$$$V2.0)
149 nM	274 nM	2200 nM	6340 nM	14 nM	9130 nM				CCCC[C@@H](C)C[C@@H]1NC(=O)[C@H](Cc2ccc(F)cn2)N(C)C(=O)[C@H](CC(C)C)NC(=O)[C@H](CC(C)C)N(C)C(=O)[C@H](C[C@H](C)CCCC)NC(=O)[C@@H](CCC#N)OC(=O)[C@H](C)N(C)C1=O [C-17]
						857 nM	8220 nM	920 nM	CC(C)C[C@@H]1NC(=O)[C@H](Cc2cn(Cc3cccc(OC(F)(F)F)c3)c3ccccc23)N(C)C(=O)[C@H](CC(C)C)NC(=O)[C@H](CC(C)C)N(C)C(=O)[C@H](CC(C)C)NC(=O)[C@@H](CCC#N)OC(=O)[C@H](C)N(C)C1=O [C-75] (HELM PEPTIDE1{L.[meA].[N#CCC[C@@H](O[*:1])C(=O)[*:2]].L.[meL].L.[CN([C@@H](Cc1cn(Cc2cccc(OC(F)(F)F)c2)c2ccccc12)C(=O)[*:2])[*:1]]}$PEPTIDE1,PEPTIDE1,1:R1-7:R2$$$V2.0)
				3150 nM					CC(C)C[C@@H]1NC(=O)[C@H](Cc2cn(Cc3ccccc3)nn2)N(C)C(=O)[C@H](CC(C)C)NC(=O)[C@H](CC(C)C)N(C)C(=O)[C@H](CC(C)C)NC(=O)[C@@H](CCC#N)OC(=O)[C@H](C)N(C)C1=O [C-73]
				327 nM		226 nM			CC(C)C[C@@H]1NC(=O)[C@H](Cc2cn(Cc3ccccc3)c3ccccc23)N(C)C(=O)[C@H](CC(C)C)NC(=O)[C@H](CC(C)C)N(C)C(=O)[C@H](CC(C)C)NC(=O)[C@@H](C)OC(=O)[C@H](C)N(C)C1=O [C-72] (HELM PEPTIDE1{L.[meA].[C[C@@H](O[*:1])C(=O)[*:2]].L.[meL].L.[CN([C@@H](Cc1cn(Cc2ccccc2)c2ccccc12)C(=O)[*:2])[*:1]]}$PEPTIDE1,PEPTIDE1,1:R1-7:R2$$$V2.0)
25 nM	90 nM	629 nM	619 nM				444 nM	111 nM	CC(C)C[C@@H]1NC(=O)[C@H](Cc2cn(Cc3ccc(Br)cc3)c3ccccc23)N(C)C(=O)[C@H](CC(F)(F)F)NC(=O)[C@H](CC(C)C)N(C)C(=O)[C@H](CC(F)(F)F)NC(=O)[C@@H](CCC#N)OC(=O)[C@H](C)N(C)C1=O [C-58, 3-((2R,5S,8S,11S,14S,17S,20S)-14-((1-(4-bromobenzyl)-1H-indol-3-yl)methyl)-8,17-diisobutyl-7,13,19,20-tetramethyl-3,6,9,12,15,18,21-heptaoxo-5,11-bis(2,2,2-trifluoroethyl)-1-oxa-4,7,10,13,16,19-hexaazacyclohenicosan-2-yl)propanenitrile] (cyclo(L[NMeA][Butanoyl(2R-oxy,4-CN)][Abu(4,4,4-F3)][NMeL][Abu(4,4,4-F3)][NMeTrp(1-(4-Br-benzyl))]))
26 nM	112 nM	834 nM	1500 nM				832 nM	154 nM	CC(C)C[C@@H]1NC(=O)[C@H](Cc2cn(Cc3ccc(Br)cc3)c3ccccc23)N(C)C(=O)[C@H](CCC(F)(F)F)NC(=O)[C@H](CC(C)C)N(C)C(=O)[C@H](CC(F)(F)F)NC(=O)[C@@H](CCC#N)OC(=O)[C@H](C)N(C)C1=O [C-57] (cyclo(L[NMeA][Butanoyl(2R-oxy,4-CN)][Abu(4,4,4-F3)][NMeL][Nva(5,5,5-F3)][NMeTrp(1-(4-Br-benzyl))]))
203 nM	1050 nM	4720 nM	14200 nM			161 nM	5280 nM		COc1ccccc1Cn1cc(C[C@H]2C(=O)N[C@@H](CC(C)C)C(=O)N(C)[C@@H](C)C(=O)O[C@H](CCC#N)C(=O)N[C@@H](CC(C)C)C(=O)N(C)[C@@H](CC(C)C)C(=O)N[C@@H](CC(C)C)C(=O)N2C)c2ccccc21 [C-32] (HELM PEPTIDE1{L.[meA].[N#CCC[C@@H](O[*:1])C(=O)[*:2]].L.[meL].L.[COc1ccccc1Cn1cc(C[C@@H](C(=O)[*:2])N(C)[*:1])c2ccccc21]}$PEPTIDE1,PEPTIDE1,1:R1-7:R2$$$V2.0)
						787 nM	15100 nM	2500 nM	CC(C)C[C@@H]1NC(=O)[C@H](Cc2cn(Cc3cccc(Br)c3)c3ccccc23)N(C)C(=O)[C@H](CC(C)C)NC(=O)[C@H](CC(C)C)N(C)C(=O)[C@H](CC(C)C)NC(=O)[C@@H](CCC#N)OC(=O)[C@H](C)N(C)C1=O [C-77] (HELM PEPTIDE1{L.[meA].[N#CCC[C@@H](O[*:1])C(=O)[*:2]].L.[meL].L.[CN([C@@H](Cc1cn(Cc2cccc(Br)c2)c2ccccc12)C(=O)[*:2])[*:1]]}$PEPTIDE1,PEPTIDE1,1:R1-7:R2$$$V2.0)
						245 nM	5840 nM	669 nM	CC(C)C[C@@H]1NC(=O)[C@H](Cc2cn(Cc3cccc(OC(F)F)c3)c3ccccc23)N(C)C(=O)[C@H](CC(C)C)NC(=O)[C@H](CC(C)C)N(C)C(=O)[C@H](CC(C)C)NC(=O)[C@@H](CCC#N)OC(=O)[C@H](C)N(C)C1=O [C-76] (HELM PEPTIDE1{L.[meA].[N#CCC[C@@H](O[*:1])C(=O)[*:2]].L.[meL].L.[CN([C@@H](Cc1cn(Cc2cccc(OC(F)F)c2)c2ccccc12)C(=O)[*:2])[*:1]]}$PEPTIDE1,PEPTIDE1,1:R1-7:R2$$$V2.0)
				354 nM		445 nM			CC(C)C[C@@H]1NC(=O)[C@H](Cc2c[nH]c3ccccc23)N(C)C(=O)[C@H](CC(C)C)NC(=O)[C@H](CC(C)C)N(C)C(=O)[C@H](CC(C)C)NC(=O)[C@@H](CCC#N)OC(=O)[C@H](C)N(C)C1=O [C-71] (HELM PEPTIDE1{L.[meA].[N#CCC[C@@H](O[*:1])C(=O)[*:2]].L.[meL].L.[meW]}$PEPTIDE1,PEPTIDE1,1:R1-7:R2$$$V2.0)

Structure (SMILES)	IC50 [1]	IC50 [2]	EC50 [3]	IC50 [4]	IC50 [5]	EC50 [6]	IC50 (HER3ss-Gluc)	EC50 [7]	EC50 [8]
COc1ccc(Cn2cc(C[C@H]3C(=O)N[C@@H](CC(C)C)C(=O)N(C)[C@@H](C)C(=O)O[C@H](C)C(=O)N[C@@H](CC(C)C)C(=O)N(C)[C@@H](CC(C)C)C(=O)N[C@@H](CC(C)C)C(=O)N3C)c3ccccc32)cc1 [C-11] (HELM PEPTIDE1{L.[meA].[C[C@@H](O[*:1])C(=O)[*:2]].L.[meL].L.[COc1ccc(Cn2cc(C[C@@H](C(=O)[*:2])N(C)[*:1])c3ccccc32)cc1]}$PEPTIDE1,PEPTIDE1,1:R1-7:R2$$$V2.0)	52 nM	295 nM	2560 nM	4500 nM	2090 nM	23700 nM			792 nM
